# Data from ChEMBL document CHEMBL5257056, “Accelerated Discovery of Macrocyclic CDK2 Inhibitor QR-6401 by Generative Models and Structure-Based Drug Design” (ACS Med Chem Lett, 2023).
# Key:
# in vitro [1] = details: human, microsomes
# in vitro [2] = details: dog, MDCK-MDR1
structure (smiles),measurement,setting,value
O=C1NCCCNC(=O)c2cccc(n2)Nc2cc([nH]n2)[C@H]2CC[C@H](C2)O1,"half-life at 0.75 h, 1 µM",in vitro [1],1.07 h
same,"Papp A→B at […], 5 µM",in vitro [2],0.9 ×10⁻⁶ cm/s
